Each structure is given as a SMILES string. Several values for one entry are separate records, joined by “and”; a condition that tells them apart may be missing. Identical values can stand only once.

This assay has as its system 242566-281-R-J2-PDC complex spheroid viability. The experiment in a line: Anticancer human tumor 242566-281-R-J2-PDC patient-derived pancreatic carcinoma cell line growth inhibition [RAS]. The conditions noted are these: for viability, T/C: stronger effect = lower value. The method, boiled down:
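Tumour cells grown as complex spheroids with HUVEC endothelial cells and mesenchymal stem cells, treated with RAS pathway inhibitor combinations. Each agent spans half-log steps from near clinical Cmax, or 10 microM where Cmax is unknown.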
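Also: spheroids exposed to compound for 7 days before readout.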
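For viability, T/C in this document: 100% = DMSO vehicle control wells.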

Take `CCN1CCN(Cc2ccc(Nc3ncc(F)c(-c4cc(F)c5nc(C)n(C(C)C)c5c4)n3)nc2)CC1` + CCn1c(-c2cc(N3CCN(C)CC3)cnc2C(C)OC)c2c3cc(ccc31)-c1csc(n1)CC(NC(=O)C1CC1C)C(=O)N1CCCC(N1)C(=O)OCC(C)(C)C2: the IC50 (curve of first compound, second compound 0.000949 µM) is greater than 1000 nM; the IC50 (curve of first compound, second compound 0.003 µM) was greater than 1000 nM; the IC50 (curve of first compound, second compound 0.00949 µM) was less than 3.16 nM; the half-maximal inhibitory concentration (IC50) (curve of first compound, second compound 0.03 µM) is less than 3.16 nM; the IC50 (curve of first compound, second compound 0.0949 µM) was less than 3.16 nM; the IC50 (curve of first compound, second compound 0.3 µM) is less than 3.16 nM. The viability, T/C is 88.6% (second compound 0.000949 µM, first compound 0.00316 µM); 88.5% (second compound 0.000949 µM, first compound 0.01 µM); 69.9% (second compound 0.000949 µM, first compound 0.0316 µM); 76% (second compound 0.000949 µM, first compound 0.1 µM); 90.5% (second compound 0.000949 µM, first compound 0.316 µM); 83.7% (second compound 0.000949 µM, first compound 1 µM). The viability, T/C was 81.9% (second compound 0.003 µM, first compound 0.00316 µM); 67.8% (second compound 0.003 µM, first compound 0.01 µM); 58.8% (second compound 0.003 µM, first compound 0.0316 µM); 63.8% (second compound 0.003 µM, first compound 0.1 µM); 71.8% (second compound 0.003 µM, first compound 0.316 µM); 56.1% (second compound 0.003 µM, first compound 1 µM). The viability, T/C (second compound 0.00949 µM, first compound 0.00316 µM) was 53.8%; the viability, T/C (second compound 0.00949 µM, first compound 0.01 µM) was 38.4%; the viability, T/C (second compound 0.00949 µM, first compound 0.0316 µM) was 43.2%; the viability, T/C (second compound 0.00949 µM, first compound 0.1 µM) is 39.6%; the viability, T/C (second compound 0.00949 µM, first compound 0.316 µM) was 42.9%; the viability, T/C (second compound 0.00949 µM, first compound 1 µM) is 48.1%. Besides, the viability, T/C was 27.8% (second compound 0.03 µM, first compound 0.00316 µM); 31.3% (second compound 0.03 µM, first compound 0.01 µM); 29.7% (second compound 0.03 µM, first compound 0.0316 µM); 30.9% (second compound 0.03 µM, first compound 0.1 µM); 29.2% (second compound 0.03 µM, first compound 0.316 µM); 40.9% (second compound 0.03 µM, first compound 1 µM). Besides, the viability, T/C (second compound 0.0949 µM, first compound 0.00316 µM) is 22%; the viability, T/C (second compound 0.0949 µM, first compound 0.01 µM) is 22.1%; the viability, T/C (second compound 0.0949 µM, first compound 0.0316 µM) is 20.8%; the viability, T/C (second compound 0.0949 µM, first compound 0.1 µM) is 22%; the viability, T/C (second compound 0.0949 µM, first compound 0.316 µM) was 22%; the viability, T/C (second compound 0.0949 µM, first compound 1 µM) was 31.6%. Moreover, the viability, T/C was 19.2% (second compound 0.3 µM, first compound 0.00316 µM); 18.9% (second compound 0.3 µM, first compound 0.01 µM); 19.1% (second compound 0.3 µM, first compound 0.0316 µM); 20.3% (second compound 0.3 µM, first compound 0.1 µM); 22.4% (second compound 0.3 µM, first compound 0.316 µM); 32.7% (second compound 0.3 µM, first compound 1 µM).

For `Cc1nc(N2CCC3(CC2)COC(C)C3N)c(CO)nc1Sc1ccnc(N)c1Cl` (stereo unspecified), the viability, T/C is, setting by setting: (compound 0.0316 µM) 119% and 98.2% and 102% (2×); (compound 0.316 µM) 94.2% [middle of 4 runs]; (compound 1 µM) 85.4% [middle of 4 runs]. For the same compound, the IC50 (curve of compound) was greater than 10000 nM.

The IC50 is the point on the concentration scale where inhibition reaches its midpoint. By viability, T/C is commonly meant the result in the treated group divided by that in the control group, in per cent.

The values above are taken from PubChem BioAssay AID2060910 (Molecular Pharmacology Branch, DTP, NCI, 2025).
